According to PubChem BioAssay (NCI):
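Cultured in 96-well plates, cells were exposed to test compound for 48 hours across five concentrations. GI50 is the concentration that inhibits growth by half. At the TGI there is no net growth.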

What was measured:
Experiment in all cases: NCI tumour cell line growth inhibition, 48 h
[1] = tested on: MDA-MB-435
[2] = tested on: SF-539 CNS
[3] = tested on: COLO 205 colon
[4] = tested on: MCF7 breast
[5] = tested on: A549 NSCLC
[6] = tested on: SW-620 colon
[7] = tested on: NCI/ADR-RES ovarian
[8] = tested on: NCI-H23 lung
[9] = tested on: RPMI-8226 leukemia
[10] = tested on: PC-3 prostate

SMILES | TGI [1] [µM] | TGI [2] [µM] | TGI [3] [µM] | TGI [4] [µM] | TGI [5] [µM] | TGI [6] [µM] | TGI [7] [µM] | TGI [8] [µM] | TGI [9] [µM] | TGI [10] [µM] | GI50 [1] [µM] | GI50 [2] [µM] | GI50 [3] [µM] | GI50 [4] [µM] | GI50 [5] [µM] | GI50 [6] [µM] | GI50 [7] [µM] | GI50 [8] [µM] | GI50 [9] [µM] | GI50 [10] [µM]
COc1c(OC)c(OC)c(C(=O)/C=C/c2ccccc2)c(OC)c1OC | 19.7 | 30.9 | 31.9 | 24.1 | 46.2 | 31 | 55.1 | 26.8 | 20.3 | 31.1 | – | – | – | – | – | – | – | – | – | –
C=CCCCCCCCCCCC1(O)C=CC2=[N+](CCCCCN=C(N)N)CCCN21 (stereo not drawn) | 31.1 | 7.71 | 13.9 | 40.8 | 24.6 | 24.2 | 85.6 | 32.3 | 29.5 | 6.39 | 12.3 | 2.84 | 2.78 | 12.3 | 5.06 | 8.11 | 22.2 | 12.9 | 2.61 | 0.466
Oc1cc(O)c2c(c1)OC(c1ccc(O)c(O)c1)C(OC1(c3cc(O)c(O)c(O)c3)Oc3cc(O)cc(O)c3C(O)C1O)C2 (stereo not drawn) | 37.6 | > 74.9 | > 85.9 | 40.2 | > 71.7 | 60.4 | 99.9 | 50.4 | 49.5 | > 100 | – | – | – | – | – | – | – | – | – | –
Cc1csc(Nc2nc(-c3cccc(Br)c3)nc(C(Cl)(Cl)Cl)n2)n1 | > 100 | > 100 | > 23.3 | > 100 | 7.28 | > 100 | > 100 | > 100 | > 100 | > 100 | 6.07 | 3.09 | 0.855 | 1.43 | 1.61 | 3.29 | 5.22 | > 100 | 2.19 | 1.92
CC(CC(=O)O)C(C(=O)O)C(=O)O (stereo not drawn) | > 100 | > 100 | > 100 | > 100 | > 100 | > 100 | > 100 | > 100 | > 100 | > 100 | – | – | – | – | – | – | – | – | – | –
C1CSCCSCCS1 | > 100 | > 100 | > 100 | > 100 | > 100 | > 100 | > 100 | > 100 | > 100 | > 100 | – | – | – | – | – | – | – | – | – | –
O=C(CC(O)(C(F)(F)F)C(F)(F)F)c1cc(CC(=O)C(O)(C(F)(F)F)C(F)(F)F)cc(CC(=O)C(O)(C(F)(F)F)C(F)(F)F)c1 | > 4.25 | 4.9 | 3.06 | 9.82 | 5.62 | > 10 | > 6.65 | 4.06 | > 10 | 3.95 | – | – | – | – | – | – | – | – | – | –
COc1cc(C2c3cc4c(cc3C(O)C(CO)C2CO)OCO4)cc(OC)c1OC (stereo not drawn) | 0.549 | – | 5.76 | > 100 | > 100 | > 100 | > 100 | > 100 | > 100 | > 100 | 0.197 | 0.335 | 0.725 | 0.355 | 1.64 | 0.37 | 21.5 | 4.21 | 1.59 | 0.596
CS(=O)(=O)CCCn1c(=O)c(Oc2ccc(F)cc2F)cc2cnc(NC3CCOCC3)nc21 | > 25 | > 25 | > 25 | > 25 | > 25 | > 25 | > 25 | > 25 | > 25 | > 25 | > 25 | > 25 | > 25 | > 25 | > 25 | > 25 | > 25 | > 25 | > 25 | > 25
Nc1nccc2c1ccn2-c1ccc(NC(=O)c2ccc(N3CCOCC3)c(C(F)(F)F)c2)cc1 | 2.99 | 5.96 | 0.871 | 1.41 | 15.3 | 4.14 | 50.9 | 17.3 | 2.88 | 17.4 | 0.69 | 0.491 | 0.297 | 0.316 | 1.39 | 1.06 | 4.87 | 0.94 | 0.311 | 0.499
CC1(C)OCCn2c1nc1c(N3CCOCC3)nc(-c3cnc(N)nc3)nc12 | – | 2.55 | 5.95 | > 100 | 4.4 | > 100 | > 100 | > 100 | 12.5 | > 68.6 | 0.27 | 0.316 | 0.217 | 0.077 | 0.283 | 0.399 | 0.508 | 0.484 | 2.14 | 0.318
Cc1cn2c(/C=C3\C(=O)Nc4ccc(O)cc43)c(-c3ccc(Cl)cc3)nc2s1 | 88.8 | 33.9 | 81.1 | 33.8 | > 100 | > 100 | > 100 | 35.8 | > 100 | > 100 | 17.6 | 17.5 | 20.8 | 14.2 | 19.1 | 35.6 | 21.5 | 15.8 | 34.5 | 22.2
COc1ccc(-c2oc(=O)ccc2-c2cc(OC)c(OC)c(OC)c2)cc1F | 6.66 | 80.3 | > 100 | > 100 | > 100 | > 100 | > 100 | > 100 | 61.4 | > 100 | 2.13 | 19.8 | 18 | 9.74 | 9.91 | 5.79 | 11 | 25.9 | 11.1 | 37.2
Cc1ccc(Cl)cc1Nc1nc(C(F)(F)F)ccc1C(=O)N1CCN(c2cccc(Cl)c2)CC1 | > 100 | > 100 | > 100 | > 100 | > 100 | > 100 | > 100 | > 100 | > 100 | > 100 | > 100 | > 100 | > 100 | 47.9 | > 100 | > 100 | > 100 | > 100 | 33.2 | 21.7
